Measurements taken from US20070128217A1 (priority 2003, published 2007).

What was measured:
[1] = tested on: antibodies in sera from SARS patients (sera 1a, 1b, 2, 6, 37, 62, London, SARS-yellow, SARS-green); type: binding, human; design: Binding of serum 6 to linear peptides of protein X1 of SARS-CoV Urbani / Binding of serum 37 to linear peptides of protein X1 of SARS-CoV Urbani / Binding of serum 6 to looped/cyclic peptide (PEPSCAN-ELISA) / Binding of serum 37 to looped/cyclic peptide (PEPSCAN-ELISA) / Binding of serum 37 to looped/cyclic peptides of protein X1 of SARS-CoV Urbani / Binding of serum 6 to linear peptides of protein X2 / Binding of serum 37 to linear peptides of protein X2 / Binding of serum 37 to looped/cyclic peptides of protein X2 of SARS-CoV Urbani / Binding of serum 6 to linear peptides of protein M of SARS-CoV Urbani / Binding of serum 37 to linear peptides of protein M of SARS-CoV Urbani / Binding of serum 6 to looped/cyclic peptides of protein M of SARS-CoV Urbani / Binding of serum 37 to looped/cyclic peptides of protein M of SARS-CoV Urbani / Binding of serum 6 to linear peptides of protein X3 of SARS-CoV Urbani / Binding of serum 37 to linear peptides of protein X3 of SARS-CoV Urbani / Binding of serum 37 to looped/cyclic peptides of protein X3 of SARS-CoV Urbani / Binding of serum 6 to linear peptides of protein X4 of SARS-CoV Urbani / Binding of serum 37 to linear peptides of protein X4 of SARS-CoV Urbani / Binding of serum 37 to looped/cyclic peptides of protein X4 of SARS-CoV Urbani / Binding of serum 6 to linear peptides of protein X5 of SARS-CoV Urbani / Binding of serum 37 to linear peptides of protein X5 of SARS-CoV Urbani / Binding of serum 37 to looped/cyclic peptides of protein X5 of SARS-CoV Urbani / Binding of serum 6 to linear peptides of protein N of SARS-CoV Urbani / Binding of serum 37 to linear peptides of protein N of SARS-CoV Urbani / Binding of serum 6 to linear peptide (PEPSCAN-ELISA) / Binding of serum 1a to looped/cyclic peptides of protein N of SARS-CoV Urbani / Binding of serum 1b to looped/cyclic peptides of protein N of SARS-CoV Urbani / Binding of serum 2 to looped/cyclic peptides of protein N of SARS-CoV Urbani / Binding of serum 6 to looped/cyclic peptides of protein N of SARS-CoV Urbani / Binding of serum 37 to looped/cyclic peptides of protein N of SARS-CoV Urbani / Binding of serum 62 to looped/cyclic peptides of protein N of SARS-CoV Urbani / Binding of serum London to looped/cyclic peptides of protein N of SARS-CoV Urbani / Binding of serum SARS-green to looped/cyclic peptides of protein N of SARS-CoV Urbani: unit not given here
[2] = tested on: control sera (pooled serum of ten healthy LUMC hospital workers; commercial negative donor pooled serum from the Dutch bloodbank); type: binding, human; design: Binding of Control serum LUMC to linear peptides / Binding of Control serum Blood-bank to linear peptides / Binding of Control serum LUMC to looped peptides / Binding of Control Serum Blood-Bank to Looped peptides / Binding of Control serum LUMC to linear peptides of the protein M of SARS-CoV Urbani / Binding of Control serum Blood-bank to linear peptides of the protein M of SARS-CoV Urbani / Binding of Control serum LUMC to looped peptides of the protein M of SARS-CoV Urbani / Binding of Control Serum Blood-Bank to Looped peptides of the protein M of SARS-CoV Urbani: unit not given here
[3] = tested on: rabbit serum obtained by immunizing a rabbit with the SARS-CoV strain Frankfurt 1; type: binding; design: Binding of a rabbit serum to linear peptides / Binding of a rabbit serum to looped peptides / Rabbit serum linear peptides / Rabbit serum looped peptides / Binding of a rabbit serum to linear peptides of protein N of SARS-CoV Urbani (Rabbit serum linear peptides) / Binding of a rabbit serum to looped/cyclic peptides of protein N of SARS-CoV Urbani (Rabbit serum looped peptides): unit not given here
[4] = tested on: recombinant human anti-SARS-CoV antibody 03-018; type: binding; design: Binding of antibody 03-018 to linear peptides of the N protein of SARS-CoV Urbani / Binding of antibody 03-018 to looped/cyclic peptides of the N protein of SARS-CoV Urbani: unit not given here

Sequence	Binding of serum 1a to linear peptides of protein N of SARS-CoV Urbani [1]	Binding of serum 1a to looped/cyclic peptides of protein N of SARS-CoV Urbani [1]	Binding of serum 1b to linear peptides of protein N of SARS-CoV Urbani [1]	Binding of serum 1b to looped/cyclic peptides of protein N of SARS-CoV Urbani [1]	Binding of serum 2 to linear peptides of protein N of SARS-CoV Urbani [1]	Binding of serum 2 to looped/cyclic peptides of protein N of SARS-CoV Urbani [1]	Binding of serum 6 to linear peptides of protein N of SARS-CoV Urbani [1]	Binding of serum 6 to looped/cyclic peptides of protein N of SARS-CoV Urbani [1]	Binding of serum 37 to linear peptides of protein N of SARS-CoV Urbani [1]	Binding of serum 37 to looped/cyclic peptides of protein N of SARS-CoV Urbani [1]	Binding of serum 62 to linear peptides of protein N of SARS-CoV Urbani [1]	Binding of serum 62 to looped/cyclic peptides of protein N of SARS-CoV Urbani [1]	Binding of serum London to linear peptides of protein N of SARS-CoV Urbani [1]	Binding of serum London to looped/cyclic peptides of protein N of SARS-CoV Urbani [1]	Binding of serum SARS-green to linear peptides of protein N of SARS-CoV Urbani [1]	Binding of serum SARS-green to looped/cyclic peptides of protein N of SARS-CoV Urbani [1]	Binding of serum SARS-yellow to linear peptides of protein N of SARS-CoV Urbani [1]	Binding of serum SARS-yellow to looped/cyclic peptides of protein N of SARS-CoV Urbani [1]	Binding of Control Serum Blood-Bank to Looped peptides [2]	Binding of Control serum Blood-bank to linear peptides [2]	other results
YFYYLGTGPEASLPY	0.3	0.4	0.1	0.3	0.3	0.5	0.2	0.3	0.7	0.9	0.8	0.7	0.4	0.4	0.0	0.4	0.7	0.6	0.7	0.7	Binding of Control serum LUMC to linear peptides [2]: 0.6; Binding of Control serum LUMC to looped peptides [2]: 0.8; Binding of a rabbit serum to linear peptides of protein N of SARS-CoV Urbani (Rabbit serum linear peptides) [3]: 0.1; Binding of a rabbit serum to looped/cyclic peptides of protein N of SARS-CoV Urbani (Rabbit serum looped peptides) [3]: 0.6; Binding of antibody 03-018 to linear peptides of the N protein of SARS-CoV Urbani [4]: 0.1; Binding of antibody 03-018 to looped/cyclic peptides of the N protein of SARS-CoV Urbani [4]: 0.2
YGANKEGIVWVATEG	0.3	0.4	0.1	0.3	0.2	0.5	0.2	0.3	0.8	0.8	0.7	0.7	0.4	0.4	0.4	0.4	0.7	0.7	0.7	0.6	Binding of Control serum LUMC to linear peptides [2]: 0.6; Binding of Control serum LUMC to looped peptides [2]: 0.7; Binding of a rabbit serum to linear peptides of protein N of SARS-CoV Urbani (Rabbit serum linear peptides) [3]: 0.1; Binding of a rabbit serum to looped/cyclic peptides of protein N of SARS-CoV Urbani (Rabbit serum looped peptides) [3]: 0.5; Binding of antibody 03-018 to linear peptides of the N protein of SARS-CoV Urbani [4]: 0.1; Binding of antibody 03-018 to looped/cyclic peptides of the N protein of SARS-CoV Urbani [4]: 0.2
